# Patent US9346793B2, “Hydroxylated aminotriazole derivatives as ALX receptor agonists” (Actelion Pharmaceuticals, LTD., priority 2010, dated 2016)
# Molecular target: recombinant human ALX receptor (HEK293-hALXR-Gα16 cells) (Homo sapiens (Human), UniProt P25090)
# Experiment: Intracellular calcium measurements (FLIPR), ALX receptor agonistic activity
# Format: cell-based
# Settings: normalized to 10 nM WKYMVm, read-out: EC50 (agonistic activity with respect to the ALX receptor)
# Experimental: The ALX receptor agonistic activity of the compounds of formula (I) is determined in accordance with the following experimental method.
# Intracellular Calcium Measurements:
# Cells expressing recombinant human ALX receptor and the G-protein Gα16 (HEK293-hALXR-Gα16) were grown to 80% confluency in Growing Medium (GM). Cells were detached from culture dishes with a cell dissociation buffer (Invitrogen, 13151-014), and collected by centrifugation at 1,000 rpm at rt for 5 min in Assay Buffer (AB) (equal parts of Hank's BSS (Gibco, 14065-049) and DMEM without Phenol Red (Gibco, 11880-028)). After 60 min incubation at 37° C. under 5% CO2 in AB supplemented with 1 μM Fluo-4 (AM) (Invitrogen, F14202) and 20 mM HEPES (Gibco, 15630-056), the cells were washed and resuspended in AB. They were then seeded onto 384-well FLIPR assay plates (Greiner, 781091) at 50,000 cells in 70 μl per well and sedimented by centrifugation at 1,000 rpm for 1 min. Stock solutions of test compounds were made up at a concentration of 10 mM in DMSO, and serially diluted in AB to concentrations required for activation dose response curves. WKYMVm (Phoenix Peptides) was used as a reference agonist. A FLIPR Tetra instrument (Molecular Devices) was operated according to the manufacturers standard instructions, adding 4 μl of test compound dissolved at 10 mM in DMSO and diluted prior to the experiment in assay buffer to obtain the desired final concentration. Changes in fluorescence were monitored before and after the addition of test compounds at lex=488 nm and lem=540 nm. Emission peak values above base level after compounds addition were exported after base line subtraction. Values were normalized to high-level control (WKYMVm compound, 10 nM final concentration) after subtraction of the base line value (AB addition).
# recombinant human ALX receptor (HEK293-hALXR-Gα16 cells), sequence (P25090 whole entry): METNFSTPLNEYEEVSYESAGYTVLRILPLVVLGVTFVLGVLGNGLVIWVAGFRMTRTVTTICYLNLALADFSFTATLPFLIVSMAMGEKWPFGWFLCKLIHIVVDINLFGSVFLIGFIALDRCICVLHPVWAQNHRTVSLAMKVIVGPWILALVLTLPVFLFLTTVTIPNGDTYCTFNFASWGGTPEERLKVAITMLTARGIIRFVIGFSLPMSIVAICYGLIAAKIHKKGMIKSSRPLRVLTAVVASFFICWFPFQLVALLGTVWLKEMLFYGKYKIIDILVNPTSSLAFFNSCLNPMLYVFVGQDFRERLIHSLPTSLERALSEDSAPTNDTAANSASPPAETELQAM
row,Structure (SMILES),EC50 [nM]
1,"Cc1cccc(-c2oc(C)nc2C(=O)Nc2cnn(Cc3nc(C(C)(C)O)co3)n2)c1 [Example 1, 2-Methyl-5-m-tolyl-oxazole-4-carboxylic acid {2-[4-(1-hydroxy-1-methyl-ethyl)-oxazol-2-ylmethyl]-2H-[1,2,3]triazol-4-yl}-amide]",11.8
2,"Cc1cccc(-c2oc(C)nc2C(=O)Nc2cnn(Cc3nc(C4(O)CC4)co3)n2)c1 [Example 2, 2-Methyl-5-m-tolyl-oxazole-4-carboxylic acid {2-[4-(1-hydroxy-cyclopropyl)-oxazol-2-ylmethyl]-2H-[1,2,3]triazol-4-yl}-amide]",7.6
3,"CC(C)(O)c1coc(Cn2ncc(NC(=O)c3ncoc3-c3ccccc3)n2)n1 [Example 3, 5-Phenyl-oxazole-4-carboxylic acid {2-[4-(1-hydroxy-1-methyl-ethyl)-oxazol-2-ylmethyl]-2H-[1,2,3]triazol-4-yl}-amide]",8
4,"CC(C)(O)c1coc(Cn2ncc(NC(=O)c3ncoc3-c3ccc(F)cc3)n2)n1 [Example 4, 5-(4-Fluoro-phenyl)-oxazole-4-carboxylic acid {2-[4-(1-hydroxy-1-methyl-ethyl)-oxazol-2-ylmethyl]-2H-[1,2,3]triazol-4-yl}-amide]",51
5,"Cc1nc(C(=O)Nc2cnn(Cc3nc(C(C)(C)O)co3)n2)c(-c2cccc(C(F)(F)F)c2)o1 [Example 5, 2-Methyl-5-(3-trifluoromethyl-phenyl)-oxazole-4-carboxylic acid {2-[4-(1-hydroxy-1-methyl-ethyl)-oxazol-2-ylmethyl]-2H-[1,2,3]triazol-4-yl}-amide]",21.7
6,"COc1cccc(-c2oc(C)nc2C(=O)Nc2cnn(Cc3nc(C(C)(C)O)co3)n2)c1 [Example 6, 5-(3-Methoxy-phenyl)-2-methyl-oxazole-4-carboxylic acid {2-[4-(1-hydroxy-1-methyl-ethyl)-oxazol-2-ylmethyl]-2H-[1,2,3]triazol-4-yl}-amide]",12.7
7,"Cc1nc(C(=O)Nc2cnn(Cc3nc(C(C)(C)O)co3)n2)c(-c2cccc(Cl)c2)o1 [Example 7, 5-(3-Chloro-phenyl)-2-methyl-oxazole-4-carboxylic acid {2-[4-(1-hydroxy-1-methyl-ethyl)-oxazol-2-ylmethyl]-2H-[1,2,3]triazol-4-yl}-amide]",10.1
8,"CC(C)(O)c1coc(Cn2ncc(NC(=O)c3ncoc3-c3cccc(Cl)c3)n2)n1 [Example 8, 5-(3-Chloro-phenyl)-oxazole-4-carboxylic acid {2-[4-(1-hydroxy-1-methyl-ethyl)-oxazol-2-ylmethyl]-2H-[1,2,3]triazol-4-yl}-amide]",17.8
9,"COc1cccc(-c2ocnc2C(=O)Nc2cnn(Cc3nc(C(C)(C)O)co3)n2)c1 [Example 9, 5-(3-Methoxy-phenyl)-oxazole-4-carboxylic acid {2-[4-(1-hydroxy-1-methyl-ethyl)-oxazol-2-ylmethyl]-2H-[1,2,3]triazol-4-yl}-amide]",17.2
10,"Cc1nc(C(=O)Nc2cnn(Cc3nc(C(C)(C)O)co3)n2)c(-c2ccccc2)o1 [Example 10, 2-Methyl-5-phenyl-oxazole-4-carboxylic acid {2-[4-(1-hydroxy-1-methyl-ethyl)-oxazol-2-ylmethyl]-2H-[1,2,3]triazol-4-yl}-amide]",10.3
11,"CC(C)(O)c1coc(Cn2ncc(NC(=O)c3ncsc3-c3cccc(F)c3)n2)n1 [Example 11, 5-(3-Fluoro-phenyl)-thiazole-4-carboxylic acid {2-[4-(1-hydroxy-1-methyl-ethyl)-oxazol-2-ylmethyl]-2H-[1,2,3]triazol-4-yl}-amide]",82.3
12,"Cc1nc(C(=O)Nc2cnn(Cc3nc(C(C)(C)O)co3)n2)c(-c2cccc(OC(F)(F)F)c2)o1 [Example 12, 2-Methyl-5-(3-trifluoromethoxy-phenyl)-oxazole-4-carboxylic acid {2-[4-(1-hydroxy-1-methyl-ethyl)-oxazol-2-ylmethyl]-2H-[1,2,3]triazol-4-yl}-amide]",32.3
13,"Cc1nc(C(=O)Nc2cnn(Cc3nc(C(C)(C)O)co3)n2)c(-c2cccc(F)c2)o1 [Example 13, 5-(3-Fluoro-phenyl)-2-methyl-oxazole-4-carboxylic acid {2-[4-(1-hydroxy-1-methyl-ethyl)-oxazol-2-ylmethyl]-2H-[1,2,3]triazol-4-yl}-amide]",13.2
14,"Cc1cccc(-c2ocnc2C(=O)Nc2cnn(Cc3nc(C(C)(C)O)co3)n2)c1 [Example 14, 5-m-Tolyl-oxazole-4-carboxylic acid {2-[4-(1-hydroxy-1-methyl-ethyl)-oxazol-2-ylmethyl]-2H-[1,2,3]triazol-4-yl}-amide]",11.3
15,"Cc1cccc(-c2oc(C3CC3)nc2C(=O)Nc2cnn(Cc3nc(C(C)(C)O)co3)n2)c1 [Example 15, 2-Cyclopropyl-5-m-tolyl-oxazole-4-carboxylic acid {2-[4-(1-hydroxy-1-methyl-ethyl)-oxazol-2-ylmethyl]-2H-[1,2,3]triazol-4-yl}-amide]",52.9
16,"Cc1cccc(-c2oc(C)nc2C(=O)Nc2cnn(Cc3nc(C(C)(C)O)cs3)n2)c1 [N-(2-((4-(2-Hydroxypropan-2-yl)thiazol-2-yl)methyl)-2H-1,2,3-triazol-4-yl)-2-methyl-5-(m-tolyl)oxazole-4-carboxamide, reference compound]",245
